One test has as its target T1, THIK-1-Y273W (Homo sapiens, UniProt Q9HB14, Y273W).
T1 construct: expressed in transfected cells; host or cells: Xenopus oocytes (mRNA injection)
T1 sequence (Q9HB14 1-408 Y273W): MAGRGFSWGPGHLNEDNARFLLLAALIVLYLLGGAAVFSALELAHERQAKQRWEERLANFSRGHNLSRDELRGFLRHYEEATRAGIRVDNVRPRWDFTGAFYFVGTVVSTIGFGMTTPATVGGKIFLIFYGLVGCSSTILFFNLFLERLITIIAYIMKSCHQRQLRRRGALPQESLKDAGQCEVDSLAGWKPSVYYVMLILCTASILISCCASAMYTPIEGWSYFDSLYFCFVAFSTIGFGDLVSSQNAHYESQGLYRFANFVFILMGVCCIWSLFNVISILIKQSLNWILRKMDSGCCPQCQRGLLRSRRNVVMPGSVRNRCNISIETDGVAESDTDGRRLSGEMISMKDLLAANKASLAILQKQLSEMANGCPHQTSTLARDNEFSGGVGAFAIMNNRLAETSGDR
The experiment in a line: Inside-out excised patch recordings, oocytes, THIK-1 Y273W mutant. It counts as cell-based. An excerpt:
(§1) Human K2P13.1 THIK-1 (GenBank accession number: NM_022054) and human K2P12.1 THIK-2 (NM_022055.1) were used in this study. For functional expression studies, the respective K^+ channel subtype coding sequences were subcloned into the oocyte expression vector pSGEM or the dual-purpose expression vector pFAW[41] and verified by sequencing. All mutant channels were obtained by site-directed mutagenesis and verified by sequencing. To increase surface expression and macroscopic currents, measurements of THIK-2 channels used a mutated ER retention motif, (R11A R12A R14A R15A R16A; THIK-2*)[20]. Vector DNA was linearized with NheI or MluI, and mRNA was synthesized in vitro using the SP6 or T7 AmpliCap Max High Yield Message Maker Kit (Cellscript, USA) or HiScribe T7 ARCA mRNA Kit (New England Biolabs).
Two-electrode voltage–clamp (TEVC) studies were performed in Xenopus oocytes. All animal use conformed to the Guide for the Care and Use of Laboratory Animals (NIH Publication 85–23), and all experiments using Xenopus toads were approved by the local ethics panels. Oocytes were stored at 17 °C in ND96 recording solution composed of (in mM): 96 NaCl, 2 KCl, 1.8 CaCl2, 1 MgCl2, 5 HEPES (pH 7.5 adjusted with NaOH and HCl), supplemented with Na-pyruvate (275 mg L^–1), theophylline (90 mg L^–1) and gentamicin (50 mg L^–1). Oocytes were injected with 1 ng mRNA for WT or mutant channels, and were incubated for 24–48 h at 17 °C. Two-electrode voltage clamp recordings were then performed as previously described[42],[43]. For macroscopic patch–clamp measurements, oocytes were obtained as described above incubated at 17 °C in a solution containing (mM): 54 NaCl, 30 KCl, 2.4 NaHCO3, 0.82 MgSO4 ×7 H2O, 0.41 CaCl2, 0.33 Ca(NO3)2 ×4 H2O and 7.5 TRIS (pH 7.4 adjusted with NaOH and HCl) for 1–4 days before use. Excised patch recordings in inside-out configuration conditions were performed at room temperature. Patch pipettes were made from thick-walled borosilicate glass GB 200TF-8P (Science Products), had resistances of 0.2–0.5 MΩ (tip diameter, 10–25 µm) and filled with a pipette solution (in mM): 120 KCl, 10 HEPES and 3.6 CaCl2 (pH 7.4 adjusted with KOH and HCl). […] Currents were recorded with an EPC10 amplifier (HEKA Electronics) and sampled at 10 kHz or higher, with filtering set to 3 kHz (–3 dB) or higher, as appropriate for sampling rate. For measurements of GPCR activation, whole-cell currents were recorded for THIK-1 in transiently transfected HEK-293 cells. […] Single-channel currents were recorded with an Axopatch 200B amplifier through a Digidata 1440A digitizer (Molecular Devices). Data were filtered at 2 kHz and recorded at a 200-kHz sampling rate with the program Clampex (Molecular Devices). […]

In a further test the target is T2, THIK-1 R87D (Homo sapiens, UniProt Q9HB14, R87D).
T2 construct: expressed in transfected cells; host or cells: Xenopus oocytes (mRNA injection)
T2 sequence (Q9HB14 1-408 R87D): T1 sequence (Q9HB14 1-408 Y273W) with R87D, W273Y
The experiment in a line: Macroscopic inside-out excised patch recordings, oocytes, THIK-1 R87D mutant. Format: cell-based.
Source text: as §1
Two-electrode voltage–clamp (TEVC) studies were performed in Xenopus oocytes. All animal use conformed to the Guide for the Care and Use of Laboratory Animals (NIH Publication 85–23), and all experiments using Xenopus toads were approved by the local ethics panels. Oocytes were stored at 17 °C in ND96 recording solution composed of (in mM): 96 NaCl, 2 KCl, 1.8 CaCl2, 1 MgCl2, 5 HEPES (pH 7.5 adjusted with NaOH and HCl), supplemented with Na-pyruvate (275 mg L^–1), theophylline (90 mg L^–1) and gentamicin (50 mg L^–1). Oocytes were injected with 1 ng mRNA for WT or mutant channels, and were incubated for 24–48 h at 17 °C. Two-electrode voltage clamp recordings were then performed as previously described[42],[43]. For macroscopic patch–clamp measurements, oocytes were obtained as described above incubated at 17 °C in a solution containing (mM): 54 NaCl, 30 KCl, 2.4 NaHCO3, 0.82 MgSO4 ×7 H2O, 0.41 CaCl2, 0.33 Ca(NO3)2 ×4 H2O and 7.5 TRIS (pH 7.4 adjusted with NaOH and HCl) for 1–4 days before use. Excised patch recordings in inside-out configuration conditions were performed at room temperature. Patch pipettes were made from thick-walled borosilicate glass GB 200TF-8P (Science Products), had resistances of 0.2–0.5 MΩ (tip diameter, 10–25 µm) and filled with a pipette solution (in mM): 120 KCl, 10 HEPES and 3.6 CaCl2 (pH 7.4 adjusted with KOH and HCl). Intracellular bath solutions and compounds were applied to the cytoplasmic side of excised patches for the various K^+ channels through a gravity flow multi-barrel pipette system. The intracellular solution had the following composition (in mM): 120 KCl, 10 HEPES, 2 EGTA and 1 pyrophosphate (pH adjusted with KOH and HCl). Currents were recorded with an EPC10 amplifier (HEKA Electronics) and sampled at 10 kHz or higher, with filtering set to 3 kHz (–3 dB) or higher, as appropriate for sampling rate. For measurements of GPCR activation, whole-cell currents were recorded for THIK-1 in transiently transfected HEK-293 cells. Cells were stimulated by a ramp protocol between −100 and +60 mV (holding potential, −80 mV). The pipette solution was composed of (in mM): 140 KCl, 2 MgCl2, 1 CaCl2, 2.5 EGTA and 10 HEPES (pH 7.3 adjusted with KOH and HCl). The extracellular bath solution had the following composition (in mM): 135 NaCl, 5 KCl, 2 MgCl2, 2 CaCl2, 10 glucose and 10 HEPES pH (pH 7.3 adjusted with NaOH and HCl). Oxotremorine M (Oxo-M) was added to extracellular bath solution to obtain the final concentration. Single-channel currents were recorded with an Axopatch 200B amplifier through a Digidata 1440A digitizer (Molecular Devices). Data were filtered at 2 kHz and recorded at a 200-kHz sampling rate with the program Clampex (Molecular Devices). Pipette solution and bath solution for cell-attached recordings contained (in mM): 140 KCl, 2 MgCl2, 1 CaCl2 and 10 HEPES (pH 7.4 adjusted with KOH and HCl). For inside-out recordings, the bath solution contained (in mM): 140 KCl, 2 MgCl2, 1 CaCl2 and 10 HEPES (pH 7.2 adjusted with KOH and HCl). All experiments were conducted at room temperature. […]

SMILES strings stand for the structures. Where a chain is given by its changes, count along the chain named. Several values for one entry are separate records, joined by “and”; a condition that tells them apart may be missing. Equal entries are not always repeated.

With `CCCCC[N+](CCCCC)(CCCCC)CCCCC` [TPenA, tetrapentylammonium], on THIK-1-Y273W (individual recordings), the “τ of 1 mM TPenA block” value was 13.500 s and 9.700 s and 8.400 s and 10.003 s and 8.350 s and 4.860 s and 3.160 s and 2.380 s and 2.990 s and 4.490 s and 10.150 s and 2.500 s and 2.400 s and 9.800 s and 5.700 s and 4.500 s and 4.080 s; the “τ of 1 mM TPenA release” value is 20.400 s and 14.700 s and 10.800 s and 14.800 s and 23.260 s and 14.350 s and 14.990 s and 14.820 s and 16.280 s and 20.350 s and 17.660 s. Also, on THIK-1-Y273W (mean), the “τ of 1 mM TPenA block” value is given as 6.29 s and the “τ of 1 mM TPenA release” value was 16.58 s.
Broadly, the inhibition is the drop in the measured response relative to a control, in per cent. Higher therefore signals strong suppression. As to `FC(F)(F)C(Cl)Br` (stereo not shown) [halothane], the “Inhibition (%)” value at THIK-1 R87D (3.0 mM halothane, R87D, individual recordings) was 54.110% and 64.133% and 70.295% and 57.409% and 74.945% and 46.769% and 63.754% and 70.637% and 69.367% and 64.901% and 58.344% and 70.045% and 57.366% and 63.096% and 56.800%. Moreover, on THIK-1 R87D (3.0 mM halothane, R87D, mean), at 3000 µM the inhibition was 62.8%. The inhibition at 152 µM against THIK-1 R87D (THIK-1 R87D, 0.152 mM halothane) was found to be 14.3%. In addition, on THIK-1 R87D (THIK-1 R87D, 0.304 mM halothane), the inhibition at 304 µM worked out at 26%. Besides, testing at 1520 µM at THIK-1 R87D (THIK-1 R87D, 1.52 mM halothane) gave an inhibition of 53.8%. The compound also returned an inhibition at 15200 µM against THIK-1 R87D (THIK-1 R87D, 15.2 mM halothane) of 84.1%.

(Values after PMC12263422, “Cryo-EM structure of the human THIK-1 K2P K^+ channel reveals a lower Y gate regulated by lipids and anesthetics” (Nature Structural & Molecular Biology, 2025).)
